The results in this text go back to patent US8975398B2, “NAMPT inhibitors” (AbbVie Inc., priority 2012, dated 2015).

For assay [1], the target named is NAMPT (human, recombinant, C-terminally His-tagged) (Homo sapiens, UniProt P43490). Nature of the assay: Time-Resolved Fluorescence Resonance Energy Transfer (TR-FRET) Binding Assay of NAMPT. The conditions noted are these: 6.8 nM NAMPT, 200 nM probe, equilibrated 3 hours, absence of substrates. Put shortly:
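Probe displacement measured by TR-FRET (Ex 337 nm; 520/495 nm ratio) after 3 h room-temperature equilibration of compound with 6.8 nM His-tagged human NAMPT, 1 nM Tb-anti-His antibody and 200 nM Oregon Green 488 nicotinamide-site probe, pH 7.5 HEPES buffer, 2% DMSO. Control-normalized data fit four-parameter logistic for IC50.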
(In general: In TR-FRET formats the signal depends on donor and acceptor labels being close together.)

A further assay deals with NAMPT (Homo sapiens, UniProt P43490). In words: Time-Resolved Fluorescence Resonance Energy Transfer (TR-FRET) Binding Assay of NAMPT with PRPP. As to conditions: 2 nM NAMPT, 2 nM probe, 200 uM PRPP and 2.5 mM ATP, equilibrated 16 hours. Put shortly:
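Binding measured by TR-FRET after a 16-hour equilibration meant to permit enzymatic compound modification. Substrates present at 200 uM PRPP and 2.5 mM ATP, with 2 nM enzyme, 2 nM probe, 1 nM Tb-anti-His antibody and 2% DMSO final.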

NAMPT (human, recombinant, C-terminally His-tagged), sequence (P43490 whole entry): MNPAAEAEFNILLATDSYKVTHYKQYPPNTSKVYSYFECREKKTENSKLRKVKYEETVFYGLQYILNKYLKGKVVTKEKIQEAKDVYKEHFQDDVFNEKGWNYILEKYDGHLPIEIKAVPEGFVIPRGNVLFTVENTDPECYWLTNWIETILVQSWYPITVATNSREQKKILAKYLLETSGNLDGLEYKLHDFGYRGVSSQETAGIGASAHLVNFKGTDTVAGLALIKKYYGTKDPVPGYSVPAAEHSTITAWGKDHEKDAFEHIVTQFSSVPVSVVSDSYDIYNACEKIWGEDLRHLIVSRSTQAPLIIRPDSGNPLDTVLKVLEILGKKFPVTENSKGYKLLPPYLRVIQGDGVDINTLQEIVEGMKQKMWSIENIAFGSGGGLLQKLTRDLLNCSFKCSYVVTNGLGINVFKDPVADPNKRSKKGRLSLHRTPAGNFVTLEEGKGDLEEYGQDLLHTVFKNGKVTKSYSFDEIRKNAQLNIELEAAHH
NAMPT, sequence (P43490 whole entry): as above

As a reminder, the IC50 is the concentration that inhibits the measured activity by half. `CCC(C)(C)C(=O)N1CCC(c2ccc(NC(=O)C3CN(c4cccnn4)C3)cc2)CC1` [Example 325, N-{4-[1-(2,2-dimethylbutanoyl)piperidin-4-yl]phenyl}-1-(pyridazin-3-yl)azetidine-3-carboxamide]: the IC50 was 14 nM in assay [1] and 1.08 nM on NAMPT.

Regarding `CC(C)C(C)C(=O)N1CCC(c2ccc(NC(=O)C3CN(c4cccnn4)C3)cc2)CC1` (stereo not drawn) [Example 326, N-{4-[1-(2,3-dimethylbutanoyl)piperidin-4-yl]phenyl}-1-(pyridazin-3-yl)azetidine-3-carboxamide], the IC50 in assay [1] was 18.3 nM; on NAMPT it was 0.626 nM.

For the compound `CC(C)(C)CC(=O)N1CCC(c2ccc(NC(=O)C3CN(c4cccnn4)C3)cc2)CC1` [Example 327, N-{4-[1-(3,3-dimethylbutanoyl)piperidin-4-yl]phenyl}-1-(pyridazin-3-yl)azetidine-3-carboxamide], the IC50 came out at 12.6 nM in assay [1] and 0.655 nM on NAMPT.

For the compound `CCC(CC)C(=O)N1CCC(c2ccc(NC(=O)C3CN(c4cccnn4)C3)cc2)CC1` [Example 328, N-{4-[1-(2-ethylbutanoyl)piperidin-4-yl]phenyl}-1-(pyridazin-3-yl)azetidine-3-carboxamide], the results for the IC50 (in assay [1]; at NAMPT) were 12.2 nM and 0.614 nM, respectively.

Regarding `CCCCCCC(=O)N1CCC(c2ccc(NC(=O)C3CN(c4cccnn4)C3)cc2)CC1` [Example 329, N-[4-(1-heptanoylpiperidin-4-yl)phenyl]-1-(pyridazin-3-yl)azetidine-3-carboxamide], the IC50 came to 24.2 nM in assay [1] and 0.616 nM at NAMPT.

On to `C=CCC(=O)N1CCC(c2ccc(NC(=O)C3CN(c4cccnn4)C3)cc2)CC1` [Example 330, N-{4-[1-(but-3-enoyl)piperidin-4-yl]phenyl}-1-(pyridazin-3-yl)azetidine-3-carboxamide], for which the IC50 in assay [1] was 31.7 nM; at NAMPT it was 0.887 nM.

`C=CCCC(=O)N1CCC(c2ccc(NC(=O)C3CN(c4cccnn4)C3)cc2)CC1` [Example 331, N-{4-[1-(pent-4-enoyl)piperidin-4-yl]phenyl}-1-(pyridazin-3-yl)azetidine-3-carboxamide]: the IC50 in assay [1] worked out at 24.9 nM; at NAMPT, 0.83 nM.

On to `O=C(Nc1ccc(C2CCN(C(=O)CC(F)(F)F)CC2)cc1)C1CN(c2cccnn2)C1` [Example 332, 1-(pyridazin-3-yl)-N-{4-[1-(3,3,3-trifluoropropanoyl)piperidin-4-yl]phenyl}azetidine-3-carboxamide], for which the IC50 in assay [1] is 21.9 nM; at NAMPT, 0.699 nM.

As to `COCC(=O)N1CCC(c2ccc(NC(=O)C3CN(c4cccnn4)C3)cc2)CC1` [Example 333, N-{4-[1-(methoxyacetyl)piperidin-4-yl]phenyl}-1-(pyridazin-3-yl)azetidine-3-carboxamide], the IC50 in assay [1] was 50.9 nM; on NAMPT, 0.631 nM.

For `CSCC(=O)N1CCC(c2ccc(NC(=O)C3CN(c4cccnn4)C3)cc2)CC1` [Example 334, N-(4-{1-[(methylsulfanyl)acetyl]piperidin-4-yl}phenyl)-1-(pyridazin-3-yl)azetidine-3-carboxamide], the IC50 in assay [1] was 18.2 nM; on NAMPT, 0.578 nM.

For the compound `COCCOCC(=O)N1CCC(c2ccc(NC(=O)C3CN(c4cccnn4)C3)cc2)CC1` [Example 335, N-(4-{1-[(2-methoxyethoxy)acetyl]piperidin-4-yl}phenyl)-1-(pyridazin-3-yl)azetidine-3-carboxamide], the figures for the IC50 (in assay [1]; on NAMPT) were 210 nM and 1.02 nM, respectively.

Take `O=C(Nc1ccc(C2CCN(C(=O)CC[N+](=O)[O-])CC2)cc1)C1CN(c2cccnn2)C1` [Example 336, N-{4-[1-(3-nitropropanoyl)piperidin-4-yl]phenyl}-1-(pyridazin-3-yl)azetidine-3-carboxamide]: the IC50 turned out to be 77.3 nM in assay [1] and 0.494 nM on NAMPT.

For `CSCCC(=O)N1CCC(c2ccc(NC(=O)C3CN(c4cccnn4)C3)cc2)CC1` [Example 337, N-(4-{1-[3-(methylsulfanyl)propanoyl]piperidin-4-yl}phenyl)-1-(pyridazin-3-yl)azetidine-3-carboxamide], the IC50 was determined as 50 nM in assay [1] and 0.522 nM at NAMPT.

On to `C#CCCC(=O)N1CCC(c2ccc(NC(=O)C3CN(c4cccnn4)C3)cc2)CC1` [Example 338, N-{4-[1-(pent-4-ynoyl)piperidin-4-yl]phenyl}-1-(pyridazin-3-yl)azetidine-3-carboxamide], for which the half-maximal inhibitory concentration (IC50) came out at 27.6 nM in assay [1] and 0.52 nM at NAMPT.

For the compound `O=C(Nc1ccc(C2CCN(C(=O)C3CCCCC3)CC2)cc1)C1CN(c2cccnn2)C1` [Example 339, N-{4-[1-(cyclohexylcarbonyl)piperidin-4-yl]phenyl}-1-(pyridazin-3-yl)azetidine-3-carboxamide], the IC50 in assay [1] came out at 17.9 nM; on NAMPT it was 0.663 nM.

In the case of `O=C(Nc1ccc(C2CCN(C(=O)CC3CCCCC3)CC2)cc1)C1CN(c2cccnn2)C1` [Example 340, N-{4-[1-(cyclohexylacetyl)piperidin-4-yl]phenyl}-1-(pyridazin-3-yl)azetidine-3-carboxamide], the IC50 is 17.6 nM in assay [1] and 0.722 nM on NAMPT.

Turning to `Cc1cccc(C(=O)N2CCC(c3ccc(NC(=O)C4CN(c5cccnn5)C4)cc3)CC2)c1` [Example 341, N-{4-[1-(3-methylbenzoyl)piperidin-4-yl]phenyl}-1-(pyridazin-3-yl)azetidine-3-carboxamide], the figures for the IC50 (in assay [1]; at NAMPT) were 35.1 nM and 0.727 nM, respectively.

Consider `O=C(Nc1ccc(C2CCN(C(=O)c3ccccc3O)CC2)cc1)C1CN(c2cccnn2)C1` [Example 342, N-{4-[1-(2-hydroxybenzoyl)piperidin-4-yl]phenyl}-1-(pyridazin-3-yl)azetidine-3-carboxamide], for which the results for the IC50 (in assay [1]; on NAMPT) were 13.1 nM and 0.698 nM, respectively.

For the compound `O=C(Nc1ccc(C2CCN(C(=O)c3cccc(O)c3)CC2)cc1)C1CN(c2cccnn2)C1` [Example 343, N-{4-[1-(3-hydroxybenzoyl)piperidin-4-yl]phenyl}-1-(pyridazin-3-yl)azetidine-3-carboxamide], the IC50 in assay [1] turned out to be 6.18 nM; at NAMPT, 0.728 nM.

On to `O=C(Nc1ccc(C2CCN(C(=O)c3ccc(O)cc3)CC2)cc1)C1CN(c2cccnn2)C1` [Example 344, N-{4-[1-(4-hydroxybenzoyl)piperidin-4-yl]phenyl}-1-(pyridazin-3-yl)azetidine-3-carboxamide], for which the concentration for half-maximal inhibition (IC50) worked out at 37.8 nM in assay [1] and 0.569 nM on NAMPT.

`COc1ccccc1C(=O)N1CCC(c2ccc(NC(=O)C3CN(c4cccnn4)C3)cc2)CC1` [Example 345, N-{4-[1-(2-methoxybenzoyl)piperidin-4-yl]phenyl}-1-(pyridazin-3-yl)azetidine-3-carboxamide]: the half-inhibitory concentration (IC50) in assay [1] was 9.54 nM; on NAMPT, 0.392 nM.

For `COc1cccc(C(=O)N2CCC(c3ccc(NC(=O)C4CN(c5cccnn5)C4)cc3)CC2)c1` [Example 346, N-{4-[1-(3-methoxybenzoyl)piperidin-4-yl]phenyl}-1-(pyridazin-3-yl)azetidine-3-carboxamide], the figures for the IC50 (in assay [1]; at NAMPT) were 30.8 nM and 0.457 nM, respectively.

`COc1ccc(C(=O)N2CCC(c3ccc(NC(=O)C4CN(c5cccnn5)C4)cc3)CC2)cc1` [Example 347, N-{4-[1-(4-methoxybenzoyl)piperidin-4-yl]phenyl}-1-(pyridazin-3-yl)azetidine-3-carboxamide]: the results for the IC50 (in assay [1]; on NAMPT) were 66.2 nM and 0.94 nM, respectively.

On to `O=C(Nc1ccc(C2CCN(C(=O)c3cccc(F)c3)CC2)cc1)C1CN(c2cccnn2)C1` [Example 348, N-{4-[1-(3-fluorobenzoyl)piperidin-4-yl]phenyl}-1-(pyridazin-3-yl)azetidine-3-carboxamide], for which the values for the IC50 (in assay [1]; at NAMPT) were 15.3 nM and 0.628 nM, respectively.

For `O=C(Nc1ccc(C2CCN(C(=O)c3ccc(F)cc3)CC2)cc1)C1CN(c2cccnn2)C1` [Example 349, N-{4-[1-(4-fluorobenzoyl)piperidin-4-yl]phenyl}-1-(pyridazin-3-yl)azetidine-3-carboxamide], the IC50 in assay [1] is 59.5 nM; on NAMPT it was 0.738 nM.

As to `O=C(Nc1ccc(C2CCN(C(=O)c3ccccc3Cl)CC2)cc1)C1CN(c2cccnn2)C1` [Example 350, N-{4-[1-(2-chlorobenzoyl)piperidin-4-yl]phenyl}-1-(pyridazin-3-yl)azetidine-3-carboxamide], the IC50 was determined as 4.62 nM in assay [1] and 0.642 nM on NAMPT.

For `O=C(Nc1ccc(C2CCN(C(=O)c3cccc(Cl)c3)CC2)cc1)C1CN(c2cccnn2)C1` [Example 351, N-{4-[1-(3-chlorobenzoyl)piperidin-4-yl]phenyl}-1-(pyridazin-3-yl)azetidine-3-carboxamide], the IC50 turned out to be 37.1 nM in assay [1] and 0.765 nM at NAMPT.

For `N#Cc1cccc(C(=O)N2CCC(c3ccc(NC(=O)C4CN(c5cccnn5)C4)cc3)CC2)c1` [Example 352, N-{4-[1-(3-cyanobenzoyl)piperidin-4-yl]phenyl}-1-(pyridazin-3-yl)azetidine-3-carboxamide], the IC50 in assay [1] amounted to 95.8 nM; at NAMPT it was 0.615 nM.

Turning to `N#Cc1ccc(C(=O)N2CCC(c3ccc(NC(=O)C4CN(c5cccnn5)C4)cc3)CC2)cc1` [Example 353, N-{4-[1-(4-cyanobenzoyl)piperidin-4-yl]phenyl}-1-(pyridazin-3-yl)azetidine-3-carboxamide], the IC50 in assay [1] turned out to be 88.2 nM; on NAMPT, 0.472 nM.

For `O=C(Nc1ccc(C2CCN(C(=O)c3cccc(C(F)(F)F)c3)CC2)cc1)C1CN(c2cccnn2)C1` [Example 354, 1-(pyridazin-3-yl)-N-(4-{1-[3-(trifluoromethyl)benzoyl]piperidin-4-yl}phenyl)azetidine-3-carboxamide], the IC50 in assay [1] came out at 82.8 nM; on NAMPT, 0.837 nM.
